Assay [1] concerns Herpes simplex virus Type II strain 333. The assay is described as follows: Antiviral activity in guinea pigs infected with Herpes simplex virus Type II (lesion inhibition). Format: in vivo. The settings on record: oral once daily for four days. An excerpt: Female Hartley guinea pigs weighing 200 to 250 g are anesthetized with methoxyflurane (available under the […] from Pitman-Moore, Inc., Washington Crossing, N.J.), after which the vaginal area is swabbed with a dry cotton swab. The guinea pigs are then infected intravaginally with a cotton swab saturated with Herpes simplex virus Type II strain 333 (1×10^5 plaque forming units/mL). Guinea pigs are assigned to groups of 7 animals; one group for each treatment and one to serve as a control (vehicle treated). The compounds of the invention are formulated in water containing 5% Tween 80 (a polyoxyethylene sorbitan monooleate available from Aldrich Chemical Company, Inc., Milwaukee, Wis.). The, guinea pigs are treated orally once daily for four consecutive days starting 24 hours after infection. Antiviral activity is evaluated by comparing lesion development in compound-treated versus vehicle-treated guinea pigs. […] The maximum lesion score of each guinea pig is used to calculate the percentage lesion inhibition. The percentage lesion inhibition is calculated as follows: […]

In assay [2] the test system is interferon-α. The assay can be described thus: Interferon-α induction in human cells, PBM. The settings on record: 24 hours. It counts as cell-based.
Assay [3] concerns interferon-α. The assay is described as follows: Interferon-α induction in human cells, diluted whole blood. It counts as cell-based. The settings on record: 24 hours.
Assay [4] concerns interferon. The assay can be described thus: Interferon induction in mice. It counts as in vivo. The settings on record: mouse serum. A digest of the protocol: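 Mouse serum collected at 1, 2 and 4 h (separate groups), pooled, stored at −70° C, then assayed as for human-cell interferon. Values in α/β reference units/mL against a mouse MU-1-IF standard; "<" marks levels below assay sensitivity.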

For assay [5], the system named is interferon. The assay is described as follows: Interferon induction in guinea pigs (serum interferon titer). The settings on record: guinea pig serum 24 hours after initial oral dose, 2 mg/kg. Format: in vivo. An excerpt:
Female Hartley guinea pigs weighing 200 to 250 g are anesthetized with methoxyflurane (available under the […] from Pitman-Moore, Inc., Washington Crossing, N.J.), after which the vaginal area is swabbed with a dry cotton swab. The guinea pigs are then infected intravaginally with a cotton swab saturated with Herpes simplex virus Type II strain 333 (1×10^5 plaque forming units/mL). Guinea pigs are assigned to groups of 7 animals; one group for each treatment and one to serve as a control (vehicle treated). The compounds of the invention are formulated in water containing 5% Tween 80 (a polyoxyethylene sorbitan monooleate available from Aldrich Chemical Company, Inc., Milwaukee, Wis.). The, guinea pigs are treated orally once daily for four consecutive days starting 24 hours after infection. Twenty-four hours after the initial dose of test compound has been administered, blood is obtained from 3 guinea pigs from each treatment group by cardiac puncture of methoxyflurane anesthetized animals. Blood is pooled and allowed to clot at room temperature. After low speed centrifugation, serum is collected and stored at -70° C. until analysis. Interferon levels in the guinea pig serum are determined in a standard microtiter assay using transformed guinea pig cells (ATCC CRL 1405). The interferon assay is done in 96 well microtiter plates. Confluent monolayers of transformed guinea pig cells are treated with dilutions of guinea pig serum made with medium 199 (GIBCO, Grand Island, N.Y.). The cell and serum dilutions are incubated at 37° C. overnight. The following day, the medium and serum are removed and about 10 plaque forming units of Mengovirus are added to each well. Controls consist of wells that receive no guinea pig serum (virus positive control) and wells that receive no virus (virus negative control). Cells and virus are incubated for 2 to 3 days at 37° C. before quantifying for viral cytopathic effect. The viral cytopathic effect is quantified by staining with 0.05% crystal violet followed by spectrophotometric absorbance measurements. The titer of interferon in serum is expressed as units/mL and is the reciprocal of the highest dilution that protects cells from virus.

The results in this text go back to US6465654B2, “Process for preparing 1-substituted, 2-substituted 1H-imidazo[4, 5-c]quinoline-4-amines” (3M Innovative Properties Company, priority 1991, dated 2002).

Regarding `CC(C)Cn1c(C(C)O)nc2c(N)nc3ccccc3c21` (stereo not drawn) [Example 20, 4-Amino-α-methyl-1-(2-methylpropyl)-1H-imidazo[4,5c]-quinoline-2-methanol], in assay [1] (dose 2 mg/kg), the “% Lesion Inhibition” value was determined as 100%. Also, the Interferon-α induction in the assay with interferon-α [2] (dose concentration 0.01 μg/mL) is listed as <1.8 α Reference Units/mL; with interferon-α [2] (dose concentration 0.05 μg/mL), 190 α Reference Units/mL; in the assay on interferon-α [2] (dose concentration 0.10 μg/mL) it was 190 α Reference Units/mL; with interferon-α [2] (dose concentration 0.50 μg/mL), 1000 α Reference Units/mL; with interferon-α [2] (dose concentration 1.0 μg/mL) it was 1000 α Reference Units/mL; in the assay with interferon-α [2] (dose concentration 5.0 μg/mL), 1000 α Reference Units/mL. Moreover, the Interferon-α induction in the assay with interferon-α [3] (dose concentration 0.10 μg/mL) is given as 85 α Reference Units/mL; in the assay on interferon-α [3] (dose concentration 0.50 μg/mL), 440 α Reference Units/mL; in the assay with interferon-α [3] (dose concentration 1.0 μg/mL), 250 α Reference Units/mL; with interferon-α [3] (dose concentration 5.0 μg/mL), 190 α Reference Units/mL. The “Interferon induction in mice” value is listed as 140 Reference Units/mL in the assay with interferon [4] (oral 1 mg/kg, 1 hr); 560 Reference Units/mL in the assay with interferon [4] (oral 1 mg/kg, 2 hr); less than 47 Reference Units/mL with interferon [4] (oral 1 mg/kg, 4 hr); 970 Reference Units/mL with interferon [4] (oral 3 mg/kg, 1 hr); 1200 Reference Units/mL in the assay on interferon [4] (oral 3 mg/kg, 2 hr); 140 Reference Units/mL in the assay with interferon [4] (oral 3 mg/kg, 4 hr). For the same compound, the “Interferon induction in mice” value came out at 2200 Reference Units/mL in the assay with interferon [4] (oral 10 mg/kg, 1 hr); 5000 Reference Units/mL in the assay with interferon [4] (oral 10 mg/kg, 2 hr); 100 Reference Units/mL in the assay on interferon [4] (oral 10 mg/kg, 4 hr); 2200 Reference Units/mL in the assay on interferon [4] (oral 30 mg/kg, 1 hr); 8700 Reference Units/mL in the assay with interferon [4] (oral 30 mg/kg, 2 hr); 320 Reference Units/mL in the assay on interferon [4] (oral 30 mg/kg, 4 hr).
Take `CC(C)Cn1c(CN2CCCC2)nc2c(N)nc3ccccc3c21` [Example 13, 1-(2-Methylpropyl)-2-pyrrolidinomethyl-1H-imidazo[4,5-c]quinolin-4-amine]: the “% Lesion Inhibition” value in assay [1] (dose 2 mg/kg) was 67%. In addition, the Interferon-α induction is recorded as <1.9 α Reference Units/mL with interferon-α [2] (dose concentration 0.10 μg/mL), 10 α Reference Units/mL with interferon-α [2] (dose concentration 0.50 μg/mL), 10 α Reference Units/mL in the assay on interferon-α [2] (dose concentration 1.0 μg/mL) and 4 α Reference Units/mL in the assay on interferon-α [2] (dose concentration 5.0 μg/mL). The “Interferon induction in mice” value in the assay with interferon [4] (oral 0.3 mg/kg, 1 hr) is less than 59 Reference Units/mL; in the assay with interferon [4] (oral 0.3 mg/kg, 2 hr), “≦130 Reference Units/mL”; in the assay on interferon [4] (oral 0.3 mg/kg, 4 hr) it was less than 59 Reference Units/mL; in the assay on interferon [4] (oral 1 mg/kg, 1 hr), 130 Reference Units/mL; in the assay on interferon [4] (oral 1 mg/kg, 2 hr), 530 Reference Units/mL; in the assay on interferon [4] (oral 1 mg/kg, 4 hr), “≦100 Reference Units/mL”. In addition, the “Interferon induction in mice” value in the assay on interferon [4] (oral 3 mg/kg, 1 hr) is 230 Reference Units/mL; in the assay with interferon [4] (oral 3 mg/kg, 2 hr), 400 Reference Units/mL; in the assay on interferon [4] (oral 3 mg/kg, 4 hr), 130 Reference Units/mL; in the assay on interferon [4] (oral 10 mg/kg, 1 hr), 700 Reference Units/mL; with interferon [4] (oral 10 mg/kg, 2 hr), 1200 Reference Units/mL; in the assay with interferon [4] (oral 10 mg/kg, 4 hr) it was 400 Reference Units/mL.
For `CC(C)Cn1c(CCl)nc2c(N)nc3ccccc3c21.Cl` [Example 10, 2-Chloromethyl-1-(2-methylpropyl)-1H-imidazo[4,5-c]quinolin-4-amine Hydrochloride], in assay [1] (dose 0.5 mg/kg), the “% Lesion Inhibition” value is 29%. In addition, the Interferon-α induction is on record as <1.3 α Reference Units/mL in the assay on interferon-α [2] (dose concentration 0.01 μg/mL); 28 α Reference Units/mL with interferon-α [2] (dose concentration 0.05 μg/mL); 140 α Reference Units/mL with interferon-α [2] (dose concentration 0.10 μg/mL); 750 α Reference Units/mL in the assay with interferon-α [2] (dose concentration 0.50 μg/mL); 750 α Reference Units/mL in the assay on interferon-α [2] (dose concentration 1.0 μg/mL); 190 α Reference Units/mL in the assay with interferon-α [2] (dose concentration 5.0 μg/mL). Also, the Interferon-α induction with interferon-α [3] (dose concentration 0.10 μg/mL) was <1.5 α Reference Units/mL; with interferon-α [3] (dose concentration 0.50 μg/mL), 96 α Reference Units/mL; with interferon-α [3] (dose concentration 1.0 μg/mL), 120 α Reference Units/mL; with interferon-α [3] (dose concentration 5.0 μg/mL) it was 120 α Reference Units/mL. In addition, the “Interferon induction in mice” value with interferon [4] (oral 0.3 mg/kg, 1 hr) is reported as less than 120 Reference Units/mL; in the assay with interferon [4] (oral 0.3 mg/kg, 2 hr) it was less than 120 Reference Units/mL; in the assay with interferon [4] (oral 0.3 mg/kg, 4 hr) it was less than 120 Reference Units/mL; with interferon [4] (oral 1 mg/kg, 1 hr) it was less than 120 Reference Units/mL; in the assay with interferon [4] (oral 1 mg/kg, 2 hr), less than 120 Reference Units/mL; with interferon [4] (oral 1 mg/kg, 4 hr), less than 120 Reference Units/mL. Also, the “Interferon induction in mice” value in the assay with interferon [4] (oral 3 mg/kg, 1 hr) is listed as less than 120 Reference Units/mL; in the assay with interferon [4] (oral 3 mg/kg, 2 hr), less than 120 Reference Units/mL; in the assay with interferon [4] (oral 3 mg/kg, 4 hr) it was less than 120 Reference Units/mL; in the assay on interferon [4] (oral 10 mg/kg, 1 hr) it was less than 120 Reference Units/mL; in the assay on interferon [4] (oral 10 mg/kg, 2 hr) it was less than 120 Reference Units/mL; in the assay with interferon [4] (oral 10 mg/kg, 4 hr) it was 600 Reference Units/mL.
For `CC(C)Cn1c(CO)nc2c(N)nc3ccccc3c21` [Example 9, 4-Amino-1-(2-methylpropyl)-1H-imidazo-[4,5-c]quinoline-2-methanol], the “% Lesion Inhibition” value in assay [1] (dose 2 mg/kg) came to 37%. Moreover, the “Reference Units/mL (interferon in serum)” value in the assay with interferon [5] was found to be 266 Units/mL. Moreover, the Interferon-α induction is <1.8 α Reference Units/mL in the assay with interferon-α [2] (dose concentration 0.01 μg/mL); 16 α Reference Units/mL with interferon-α [2] (dose concentration 0.05 μg/mL); 140 α Reference Units/mL in the assay on interferon-α [2] (dose concentration 0.10 μg/mL); 750 α Reference Units/mL in the assay on interferon-α [2] (dose concentration 0.50 μg/mL); 750 α Reference Units/mL in the assay with interferon-α [2] (dose concentration 1.0 μg/mL); 750 α Reference Units/mL in the assay with interferon-α [2] (dose concentration 5.0 μg/mL). Also, the “Interferon induction in mice” value with interferon [4] (oral 1 mg/kg, 1 hr) is on record as less than 47 Reference Units/mL; in the assay with interferon [4] (oral 1 mg/kg, 2 hr) it was less than 47 Reference Units/mL; with interferon [4] (oral 1 mg/kg, 4 hr), less than 47 Reference Units/mL; in the assay with interferon [4] (oral 3 mg/kg, 1 hr) it was “≦47 Reference Units/mL”; with interferon [4] (oral 3 mg/kg, 2 hr), “≦47 Reference Units/mL”; in the assay on interferon [4] (oral 3 mg/kg, 4 hr), less than 47 Reference Units/mL. The “Interferon induction in mice” value with interferon [4] (oral 10 mg/kg, 1 hr) is recorded as 330 Reference Units/mL; in the assay with interferon [4] (oral 10 mg/kg, 2 hr), 740 Reference Units/mL; in the assay with interferon [4] (oral 10 mg/kg, 4 hr), “≦47 Reference Units/mL”; with interferon [4] (oral 30 mg/kg, 1 hr) it was 2900 Reference Units/mL; with interferon [4] (oral 30 mg/kg, 2 hr) it was 5000 Reference Units/mL; in the assay with interferon [4] (oral 30 mg/kg, 4 hr), 4 Reference Units/mL.
